According to patent US8822448B2, “Pyrazoloquinoline compound” (Astellas Pharma Inc., priority 2010, dated 2014):
Where a name gives a salt, the structure may show the parent alone.

Tests used:
PDE9 = PDE9 (Homo sapiens (Human), UniProt O76083); assay: PDE9-inhibiting activity (SPA enzyme assay); assay type: biochemical; details: IC50 values; cGMP 1 μM substrate, 30° C.; read-out: PDE9 inhibition
Experimental: The PDE9-inhibiting activity was measured by the following method. That is, to a buffer solution containing tris(hydroxymethyl)aminomethane-hydrochloric acid (40 mM, pH 8.0), magnesium chloride (5 mM), and 2-mercaptoethanol (4 mM) were added cGMP (1 μM) and ^3H-cGMP (0.33 μCi/ml) to give a substrate buffer solution. A test substance solution and an enzyme solution which had been adjusted to an optimal concentration were added thereto to perform a reaction at 30° C. The enzyme reaction was stopped by the addition of Scintillation Proximity Assay (SPA) Beads (Perkin Elmer, USA) containing 5 mM 3-isobutyl-1-methylxanthine (IBMX). For the enzyme activity, the amount of 5′-GMP, which is a reaction degradation product bound to SPA beads, was measured with a TopCount microplate reader (Hewlett Packard, USA). The inhibitory rate was calculated by taking the radioactivity of the control containing no test substance as (A), taking the radioactivity of the blank containing no enzyme as (B), and taking the radioactivity of the test substance as (C), and using the following equation.

[1] = system: urethra relaxation response; assay: Simultaneous measurement model for rat bladder contraction/urethra relaxation responses; assay type: in vivo; details: female SD rat, increase relative to the solvent administration group, read-out: Ratio with increased urethra relaxation time during voiding (vs vehicle) (%)
Experimental: Simultaneous measurement of the bladder contraction and urethra relaxation responses using a rat was carried out with a partial modification of a method in Wibberley et al. (Wibberley, A., et al., Br. J. Pharmacol., 136: pp. 399-414 (2002)). That is, a female Sprague-Dawley (SD) rat (Charles River Laboratories Japan, Inc.) was anesthetized with urethane, and the bladder was exposed by a midline incision in the lower abdomen. A double lumen cannula (a cannula having a dual structure by PE190 and PE50) from the bladder apex was inserted into the bladder, and the bladder apex and the cannula were fixed by sutures at a point where the tip reached the proximal urethra. While infusing physiological saline into the urethra through the outer cannula, the urethral inner pressure was measured by a pressure transducer through the inner cannula with a saline solution infused into the urethra through the outer cannula. On the other hand, a single cannula (PESO) was inserted into the bladder from the bladder apex and placed therein. The inner pressure of the bladder was measured through this cannula. After a postoperative stabilization period had passed, physiological saline was infused into the bladder through the cannula of the bladder apex to cause a bladder contraction reaction, and thus cause a urethra relaxation response accompanying the bladder contraction reflex. The test substance was administered intravenously or intraduodenally.

Chain of PDE9 (O76083 whole entry): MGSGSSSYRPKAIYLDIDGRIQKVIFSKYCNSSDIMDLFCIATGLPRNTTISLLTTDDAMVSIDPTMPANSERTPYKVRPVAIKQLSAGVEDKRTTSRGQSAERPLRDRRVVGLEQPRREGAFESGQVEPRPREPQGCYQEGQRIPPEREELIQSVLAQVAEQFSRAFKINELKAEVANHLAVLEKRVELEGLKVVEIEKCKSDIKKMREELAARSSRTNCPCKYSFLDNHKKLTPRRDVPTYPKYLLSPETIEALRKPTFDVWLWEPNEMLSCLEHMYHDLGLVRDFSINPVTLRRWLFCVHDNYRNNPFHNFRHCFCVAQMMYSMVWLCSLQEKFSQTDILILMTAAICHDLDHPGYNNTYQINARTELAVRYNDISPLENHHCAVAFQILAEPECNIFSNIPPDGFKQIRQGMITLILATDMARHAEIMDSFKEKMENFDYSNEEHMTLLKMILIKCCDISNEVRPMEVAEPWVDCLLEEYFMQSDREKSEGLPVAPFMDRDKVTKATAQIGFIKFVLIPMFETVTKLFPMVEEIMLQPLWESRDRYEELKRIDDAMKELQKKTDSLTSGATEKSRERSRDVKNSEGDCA

Compound | IC50 (PDE9) | response vs control in vivo at 1 mg/kg [1] | melting point
Cc1cc2[nH]c(=O)c3cnn(C4CCC4)c3c2cc1C(=O)N1CCN(CC2CCOCC2)CC1 [Example 55] | 15 nM | 166% | –
CCOCCCN1CCN(C(=O)c2cc3c(cc2C)[nH]c(=O)c2cnn(C4CCOCC4)c23)CC1 [Example 63] | 8.4 nM | – | 217 to 219 °C
O=C(c1ccc2c(c1)[nH]c(=O)c1cnn(C3CCOCC3)c12)N1CCOC(c2ccccc2F)C1 (centres unmarked) [Example 20] | – | – | 174 to 176 °C
COCCCCN1CCN(C(=O)c2cc3c(cc2C)[nH]c(=O)c2cnn(C4CCCC4)c23)CC1 [Example 67] | – | – | 234 to 236 °C
Cc1cc2[nH]c(=O)c3cnn(C4CCOCC4)c3c2cc1C(=O)N1CCN(C)C(c2ccccc2)C1 (centres unmarked) [Example 21] | – | – | 253 to 256 °C
COCC1CCN(C(=O)c2cc3c(cc2C)[nH]c(=O)c2cnn(C4CCOCC4)c23)CC1.Cl [Example 28] | 9.1 nM | – | 253 to 255 °C
COCCCCN1CCN(C(=O)c2cc3c(cc2C)[nH]c(=O)c2cnn(CC4CCC4)c23)CC1 [Example 90] | – | – | 178 to 180 °C
Cc1cc2[nH]c(=O)c3cnn(C4CCOCC4)c3c2cc1C(=O)N1CCN(c2ccccn2)CC1 [Example 17] | 2.1 nM | – | 272 to 275 °C
COCCCCN1CCN(C(=O)c2cc3c(cc2C)[nH]c(=O)c2cnn(C4CCOCC4)c23)CC1.Cl [Example 84] | 9.3 nM | 154% | 240 to 242 °C
O=C(c1ccc2c(c1)[nH]c(=O)c1cnn(C3CCCC3)c12)N1CCc2cc(Cl)ccc21 [Example 1, 7-[(5-chloro-2,3-dihydro-1H-indol-1-yl)carbonyl]-1-cyclopentyl-1,5-dihydro-4H-pyrazolo[4,3-c]quinolin-4-one] | 18 nM | – | 291 to 294 °C
O=C(c1ccc2c(c1)[nH]c(=O)c1cnn(C3CCOCC3)c12)N1CCc2cc(Cl)ccc21 [Example 12] | 8.6 nM | – | 341 to 343 °C
CCOC1CCN(C(=O)c2cc3c(cc2C)[nH]c(=O)c2cnn(C4CCOCC4)c23)CC1 [Example 40] | 8.9 nM | 138% | –
COCCN1CCN(C(=O)c2cc3c(cc2C)[nH]c(=O)c2cnn(C4CCOCC4)c23)C[C@@H]1c1ccccc1 [Example 47] | – | – | 218 to 220 °C
Cc1cc2[nH]c(=O)c3cnn(C4CCOCC4)c3c2cc1C(=O)N1CCC(COC2CC2)CC1 [Example 217] | 4.4 nM | – | 210 to 211 °C
CCN1CCN(C(=O)c2cc3c(cc2C)[nH]c(=O)c2cnn(C4CCOCC4)c23)CC1c1cccnc1 (centres unmarked) [Example 91] | – | – | 272 to 274 °C
CCOCCCCN1CCN(C(=O)c2cc3c(cc2C)[nH]c(=O)c2cnn(C4CCOCC4)c23)C[C@@H]1C [Example 109] | 5.8 nM | 158% | –
CCOCC1CN(C(=O)c2cc3c(cc2C)[nH]c(=O)c2cnn(C4CCOCC4)c23)C1 [Example 86] | 3.3 nM | – | 226 to 228 °C
COCCCCN1CCN(C(=O)c2cc3c(cc2C)[nH]c(=O)c2cnn(CC4CC4)c23)CC1.Cl [Example 103] | 13 nM | – | 207 to 208 °C
COc1cc2c(cn1)N(C(=O)c1ccc3c(c1)[nH]c(=O)c1cnn(C4CCOCC4)c13)CC2 [Example 15] | – | – | 337 to 340 °C
Cc1cc2[nH]c(=O)c3cnn([C@H]4CCOC4)c3c2cc1C(=O)N1CCC(OC2CC2)CC1 [Example 218] | 17 nM | – | 197 to 198 °C
Cc1nn(C2CCCC2)c2c1c(=O)[nH]c1cc(C(=O)N3CCc4cc(F)ccc43)ccc12 [Example 18] | – | – | 321 to 323 °C
Cc1cc2[nH]c(=O)c3cnn(C4CCOCC4)c3c2cc1C(=O)N1CCC(OC[C@H](C)F)CC1 [Example 95] | 14 nM | 166% | 209 to 210 °C
Cc1cc2[nH]c(=O)c3cnn(C4CCOCC4)c3c2cc1C(=O)NCC1(N2CCOCC2)CCCCC1.Cl [Example 23] | 0.4 nM | 168% | 281 to 283 °C
CCCOC1CCN(C(=O)c2cc3c(cc2C)[nH]c(=O)c2cnn(C4CCOCC4)c23)CC1 [Example 53] | 3.9 nM | 145% | 216 to 218 °C

Compound | IC50 (PDE9) | response vs control in vivo at 1 mg/kg [1] | melting point
Cc1cc2[nH]c(=O)c3cnn(C4CCOCC4)c3c2cc1C(=O)N1CCN(Cc2cccnc2)CC1 (as salt: hydrochloride) [Example 2, 7-methyl-8-{[4-(pyridin-3-ylmethyl)piperazin-1-yl]carbonyl}-1-(tetrahydro-2H-pyran-4-yl)-1,5-dihydro-4H-pyrazolo[4,3-c]quinolin-4-one dihydrochloride] | – | – | 259 to 263 °C
Cc1cc2[nH]c(=O)c3cnn(C4CCOCC4)c3c2cc1C(=O)N1CCC(OCC2CC2)CC1 [Example 41] | 5.7 nM | 159% | 206 to 208 °C
Cc1cc2[nH]c(=O)c3cnn(C4CCOCC4)c3c2cc1C(=O)N1CCC2(CCN(Cc3ccccc3)CC2)CC1 [Example 16] | 9.1 nM | – | 221 to 224 °C
Cc1cc2[nH]c(=O)c3cnn(C4CCOCC4)c3c2cc1C(=O)N1CCC(Oc2ccccn2)CC1 [Example 22] | 2.2 nM | 142% | 250 to 253 °C
O=C(c1ccc2c(c1)[nH]c(=O)c1cnn(C3CCOCC3)c12)N1CCOC(c2ccc(F)cc2)C1 (centres unmarked) [Example 14] | 81 nM | – | 293 to 296 °C
Cc1cc2[nH]c(=O)c3cnn(C4CCOCC4)c3c2cc1C(=O)N1CCC(OCC(C)(F)F)CC1 [Example 176] | 8.4 nM | – | 210 to 211 °C
CCOCC1CCN(C(=O)c2cc3c(cc2C)[nH]c(=O)c2cnn(C4CCOCC4)c23)CC1 [Example 56] | 4.4 nM | 158% | –
Cc1cc2[nH]c(=O)c3cnn(C4CCOCC4)c3c2cc1C(=O)N1CCN(C)C(c2cccnc2)C1 (centres unmarked) [Example 49] | 3.9 nM | – | 255 to 257 °C
Cc1cc2[nH]c(=O)c3cnn(C4CCOCC4)c3c2cc1C(=O)N1CCOC(c2cccnc2)C1 (centres unmarked) [Example 48] | – | – | 266 to 268 °C
Cc1cc2[nH]c(=O)c3cnn(C4CCOCC4)c3c2cc1C(=O)N1CCN(CCCOC(C)(C)C)CC1 [Example 77] | – | – | 238 to 240 °C
CN1CCN(C(=O)c2ccc3c(c2)[nH]c(=O)c2cnn(C4CCOCC4)c23)CC1c1ccccc1 (centres unmarked) [Example 13] | 85 nM | – | 183 to 186 °C
O=C(c1ccc2c(c1)[nH]c(=O)c1cnn(C3CCOCC3)c12)N1Cc2cccc(F)c2C1 [Example 19] | – | – | 312 to 318 °C (dec.)
O=C(c1ccc2c(c1)[nH]c(=O)c1cnn(C3CCOCC3)c12)N1CCCC(c2ccccc2)C1 (centres unmarked) [Example 11] | – | – | 298 to 301 °C
COCC(F)(F)CN1CCN(C(=O)c2cc3c(cc2C)[nH]c(=O)c2cnn(C4CCOCC4)c23)CC1 [Example 133] | 8.3 nM | – | 212 to 213 °C
Cc1cc2[nH]c(=O)c3cnn(C4CCOCC4)c3c2cc1C(=O)N1CCN(C2CCCC2)CC1 [Example 255] | – | – | 228 to 230 °C
COCCC1CCN(C(=O)c2cc3c(cc2C)[nH]c(=O)c2cnn(C4CCOCC4)c23)CC1 [Example 66] | 4.3 nM | – | 241 to 242 °C
Cc1cc2[nH]c(=O)c3cnn(C4CCCC4)c3c2cc1C(=O)N1CCN(C2CCOCC2)CC1 [Example 58] | – | – | 263 to 265 °C
COCCCN1CCN(C(=O)c2cc3c(cc2C)[nH]c(=O)c2cnn(CC4CCC4)c23)CC1 [Example 97] | – | – | 186 to 188 °C
Cc1cc2[nH]c(=O)c3cnn(C4CCOCC4)c3c2cc1C(=O)N1CCC(OC[C@@H](C)F)CC1 [Example 177] | 9.7 nM | – | 205 to 206 °C
Cc1cc2[nH]c(=O)c3cnn(C4CCOCC4)c3c2cc1C(=O)N1CCN(CCCOC(C)C)CC1 [Example 64] | – | – | 122 to 124 °C
Cc1cc2[nH]c(=O)c3cnn(C4CCC(F)(F)CC4)c3c2cc1C(=O)N1CCN(CCC(F)(F)F)[C@@H](C)C1 [Example 208] | 1.7 nM | – | –
Cc1cc2[nH]c(=O)c3cnn(C4CCOCC4)c3c2cc1C(=O)N1CCN(CCCc2cccnc2)CC1 [Example 57] | – | – | 254 to 256 °C
Cc1ccc(OC2CCN(C(=O)c3cc4c(cc3C)[nH]c(=O)c3cnn(C5CCN(C)CC5)c34)CC2)nc1 [Example 213] | 11 nM | – | –
